US4084006A, “Method of using dialkylphenols an antiviral agents” (priority 1977, dated 1978)

Tested on: San Carlos virus
Assay: Dimethylphenols against San Carlos virus in tissue culture (human embryonic lung), CPE
Format: cell-based, San Carlos virus (adenovirus)
Conditions: for CPE with TCID50 doses of San Carlos virus: human embryonic lung, 100 TCID50; for anti-viral activity against San Carlos virus: at various concentrations

| Structure (SMILES) | CPE with TCID50 doses of San Carlos virus (10^-6 grams 2X) | CPE with TCID50 doses of San Carlos virus (10^-7 grams 2X) | CPE with TCID50 doses of San Carlos virus (10^-8 grams 2X) | CPE with TCID50 doses of San Carlos virus (10^-9 grams 2X) | CPE with TCID50 doses of San Carlos virus (10^-10 grams 2X) | CPE with TCID50 doses of San Carlos virus (10^-11 grams 2X) | CPE with TCID50 doses of San Carlos virus (10^-12 grams 2X) | CPE with TCID50 doses of San Carlos virus (10^-13 grams 2X) | CPE with TCID50 doses of San Carlos virus (10^-14 grams 2X) | CPE with TCID50 doses of San Carlos virus (10^-15 grams 2X) | anti-viral activity against San Carlos virus |
| --- | --- | --- | --- | --- | --- | --- | --- | --- | --- | --- | --- |
| Cc1cccc(C)c1O [2,6-dimethylphenol] | 2+ (50% of cells infected with selected virus) | 2+ (50% of cells infected with selected virus) | 1+ (25% of cells infected with selected virus) | 2+ (50% of cells infected with selected virus) | 1+ (25% of cells infected with selected virus) | 3+ (75% of cells infected with selected virus) | 2+ (50% of cells infected with selected virus) | 2+ (50% of cells infected with selected virus) | 1+ (25% of cells infected with selected virus) | 1+ (25% of cells infected with selected virus) | exhibit anti-viral activity |
| Cc1ccc(C)c(O)c1 [2,5-dimethylphenol] | 3+ (75% of cells infected with selected virus) | 2+ (50% of cells infected with selected virus) | 1+ (25% of cells infected with selected virus) | ± (less than 10% infected) | 1+ (25% of cells infected with selected virus) | 1+ (25% of cells infected with selected virus) | ± (less than 10% infected) | ± (less than 10% infected) | ± (less than 10% infected) | 2+ (50% of cells infected with selected virus) | exhibit anti-viral activity |
| Cc1ccc(O)cc1C [3,4-dimethylphenol, reference compound] | 2+ (50% of cells infected with selected virus) | 1+ (25% of cells infected with selected virus) | 1+ (25% of cells infected with selected virus) | 1+ (25% of cells infected with selected virus) | 2+ (50% of cells infected with selected virus) | 2+ (50% of cells infected with selected virus) | 1+ (25% of cells infected with selected virus) | 2+ (50% of cells infected with selected virus) | 2+ (50% of cells infected with selected virus) | 1+ (25% of cells infected with selected virus) | – |
| Cc1cccc(O)c1C [2,3-dimethylphenol] | 3+ (75% of cells infected with selected virus) | 2+ (50% of cells infected with selected virus) | 2+ (50% of cells infected with selected virus) | 1+ (25% of cells infected with selected virus) | 1+ (25% of cells infected with selected virus) | 1+ (25% of cells infected with selected virus) | 2+ (50% of cells infected with selected virus) | 1+ (25% of cells infected with selected virus) | 2+ (50% of cells infected with selected virus) | 2+ (50% of cells infected with selected virus) | exhibit anti-viral activity |
